Measurements reported in patent US20130102624A1 (priority 2011, published 2013).

What was measured:
[1] = urinary excretion of thiamine metabolites TMA and PMA and TMA/PMA ratio (LC-MS/MS of urine)
[2] = in vivo; cited from earlier work

SMILES	Urinary excretion rate at lowest point during fasting ([1]; human)	TMA/PMA ratio relative to its typical fasting value (transient reduction) ([1]; consumption of thiamine after a period of induced deficiency)	Ratio of TMA to PMA (TMA/PMA) in urine ([1]; human, following consumption of thiamine (100 mg) after fast and sucrose)	Oral bioavailability [2]
Cc1ncc(CO)c(N)n1 [PMA]	0.07 nmol/h			
Cc1ncsc1CCO [TMA]	0.06 nmol/h			
Cc1ncc(C[n+]2csc(CCO)c2C)c(N)n1 [thiamine]		less than 20%	0.12	poor
